Patent publication US4335041A, “High sensitivity assays for angiotensin converting enzyme” (Ventrex Laboratories, Inc., priority 1980, dated 1982)
Peptide text beside a SMILES is read from it. * marks the point of attachment. Bz = O=C(c1ccccc1)*

Legend:
Guinea pig urinary ACE = target: T1, Guinea pig urinary ACE (Cavia porcellus, UniProt H0UWL7); test: Sulfate and chloride effects on substrate hydrolysis (Example 3); assay type: biochemical
T1 sequence (H0UWL7 33-1302): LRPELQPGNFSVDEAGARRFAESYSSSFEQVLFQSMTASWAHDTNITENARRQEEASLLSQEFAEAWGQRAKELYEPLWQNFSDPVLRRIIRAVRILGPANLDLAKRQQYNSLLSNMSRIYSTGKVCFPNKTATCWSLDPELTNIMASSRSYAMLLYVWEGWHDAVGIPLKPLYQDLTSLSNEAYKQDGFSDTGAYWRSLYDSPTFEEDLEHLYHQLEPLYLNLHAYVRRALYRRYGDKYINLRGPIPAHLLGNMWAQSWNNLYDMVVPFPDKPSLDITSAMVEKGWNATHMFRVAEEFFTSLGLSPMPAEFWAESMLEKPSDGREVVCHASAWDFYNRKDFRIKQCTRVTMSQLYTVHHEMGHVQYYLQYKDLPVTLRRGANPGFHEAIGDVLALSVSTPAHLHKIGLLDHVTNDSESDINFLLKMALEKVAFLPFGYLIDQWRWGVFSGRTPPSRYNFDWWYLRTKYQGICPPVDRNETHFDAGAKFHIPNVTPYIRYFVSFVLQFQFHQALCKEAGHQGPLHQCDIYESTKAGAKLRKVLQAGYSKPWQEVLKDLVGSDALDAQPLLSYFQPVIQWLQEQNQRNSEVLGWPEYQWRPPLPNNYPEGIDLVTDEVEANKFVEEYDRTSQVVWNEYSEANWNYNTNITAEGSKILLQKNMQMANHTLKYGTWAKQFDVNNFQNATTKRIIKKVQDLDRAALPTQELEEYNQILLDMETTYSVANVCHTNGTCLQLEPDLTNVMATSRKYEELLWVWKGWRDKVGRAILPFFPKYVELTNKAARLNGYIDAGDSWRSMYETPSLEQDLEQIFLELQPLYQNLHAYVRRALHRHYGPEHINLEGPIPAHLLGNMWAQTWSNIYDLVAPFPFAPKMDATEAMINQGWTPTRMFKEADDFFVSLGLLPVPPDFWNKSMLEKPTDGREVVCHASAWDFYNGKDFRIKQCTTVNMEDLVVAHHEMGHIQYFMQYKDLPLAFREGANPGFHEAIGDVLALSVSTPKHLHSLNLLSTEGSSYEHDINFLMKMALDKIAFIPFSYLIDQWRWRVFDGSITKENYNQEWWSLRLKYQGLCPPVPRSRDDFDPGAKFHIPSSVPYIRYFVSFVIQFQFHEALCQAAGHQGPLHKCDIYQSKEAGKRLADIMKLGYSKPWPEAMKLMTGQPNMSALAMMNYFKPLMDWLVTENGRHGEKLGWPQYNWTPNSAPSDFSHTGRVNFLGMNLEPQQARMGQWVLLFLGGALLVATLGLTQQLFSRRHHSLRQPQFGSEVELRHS
Procedure: ^3 H-HipHisLeu prepared as described in Example 2 and ^3 H-benzoylPheAlaPro, prepared as described in Example 5, were used as substrates for Guinea pig urinary ACE, prepared as described in Example 1. […] All incubations were carried out at 37° C. for 10 minutes. Enzyme was diluted in the reaction buffer to provide not more than 15% hydrolysis during the 10 minute incubation. Enzyme, 50 μl, was mixed with 50 μl ^3 H-HipHisLeu, 0.2 mM, having 150,000 total counts pr minute (cpm), or with ^3 H-benzoylPheAlaPro having 10,000 cpm to 200,000 cpm. Reactions were carried out in the presence of 0.1 M NaCl or in the absence of NaCl, with varying amounts of Na2 SO4 added.

Guinea pig serum ACE = target: T2, Guinea pig serum ACE (Cavia porcellus, UniProt H0UWL7); test: Kinetics of sulfate-stimulated HipHisLeu hydrolysis (Example 4); assay type: biochemical
T2 sequence (H0UWL7 33-1234): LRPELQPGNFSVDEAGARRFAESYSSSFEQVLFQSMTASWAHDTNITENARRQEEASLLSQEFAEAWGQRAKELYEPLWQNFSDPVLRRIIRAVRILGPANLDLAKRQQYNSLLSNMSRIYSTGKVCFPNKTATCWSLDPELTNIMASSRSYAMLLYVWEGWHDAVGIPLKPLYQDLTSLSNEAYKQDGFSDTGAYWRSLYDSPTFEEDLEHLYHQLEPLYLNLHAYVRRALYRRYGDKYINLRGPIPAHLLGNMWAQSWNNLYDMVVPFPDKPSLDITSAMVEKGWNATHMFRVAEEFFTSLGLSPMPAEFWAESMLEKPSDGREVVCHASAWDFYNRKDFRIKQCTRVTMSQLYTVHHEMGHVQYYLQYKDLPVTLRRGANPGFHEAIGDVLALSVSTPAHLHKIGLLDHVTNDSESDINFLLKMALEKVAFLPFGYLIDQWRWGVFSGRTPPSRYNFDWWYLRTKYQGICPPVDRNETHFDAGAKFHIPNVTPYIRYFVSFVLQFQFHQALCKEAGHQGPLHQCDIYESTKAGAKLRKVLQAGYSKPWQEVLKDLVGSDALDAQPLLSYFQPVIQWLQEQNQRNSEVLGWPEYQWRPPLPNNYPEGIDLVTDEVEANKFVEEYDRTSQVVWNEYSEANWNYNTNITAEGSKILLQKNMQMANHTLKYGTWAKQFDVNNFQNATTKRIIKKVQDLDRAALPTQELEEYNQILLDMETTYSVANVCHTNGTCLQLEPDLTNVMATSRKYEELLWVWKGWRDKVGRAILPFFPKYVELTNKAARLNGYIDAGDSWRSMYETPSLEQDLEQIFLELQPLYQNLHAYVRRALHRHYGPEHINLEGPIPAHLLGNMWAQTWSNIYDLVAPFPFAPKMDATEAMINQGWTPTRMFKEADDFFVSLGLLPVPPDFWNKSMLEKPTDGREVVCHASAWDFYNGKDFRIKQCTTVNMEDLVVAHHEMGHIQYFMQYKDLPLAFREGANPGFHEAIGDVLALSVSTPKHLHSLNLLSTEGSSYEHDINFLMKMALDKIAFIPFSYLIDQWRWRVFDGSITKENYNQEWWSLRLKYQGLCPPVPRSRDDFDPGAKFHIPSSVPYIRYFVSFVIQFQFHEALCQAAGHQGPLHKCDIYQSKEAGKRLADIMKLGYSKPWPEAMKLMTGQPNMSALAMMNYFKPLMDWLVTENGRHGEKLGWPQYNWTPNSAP
Procedure: In each assay, 50 μl of Guinea pig serum diluted 1-20 (v/v) in the reaction buffer was mixed with 50 μl of buffer containing sufficient ^3 H-HipHisLeu to provide approximately 100,000 cpm total, together with sufficient unlabeled HipHisLeu to produce the desired substrate concentrations, as indicated in Table 2. […] The reaction mixture was then extracted with 1 ml ethyl acetate. 500 μl of the ethyl acetate fraction was sampled and counted in a scintillation counter.

ACE from rabbit lung = conditions: sodium chloride removed; cited from earlier work
[1] = Solvent extraction from acidified reaction mixture; assay type: physicochemical
Text: While a variety of organic solvents may be suitable for the extraction step, it is preferred to employ toluene.

ACE = test: Response of 3H-benzoylPheAlaPro hydrolysis to added NaCl; assay type: biochemical; conditions: 0.05 M added sodium chloride, 0.05 M Hepes pH 8.0
Procedure: An even more sensitive assay for ACE activity has been developed using the novel compound ^3 H-benzoylPheAlaPro as substrate. This new substrate can be used to assay ACE in human urine in incubations as short as 15 minutes. The response of this substrate to ions is strikingly different from the response of HipHisLeu. […] This difficulty has been solved by the proper choice of extracting solvent. While a variety of organic solvents may be suitable for the extraction step, it is preferred to employ toluene. Approximately 88% of ^3 H-benzoylPhe enters the toluene phase while only 6% of the unhydrolyzed substrate enters the toluene phase, when toluene and the acidified reaction mixture are in approximately equal volumes at room temperature.

[2] = system: enzyme isolated from hog lung; conditions: cited from earlier work
[3] = sulfate 0.6 M, 0.1 M chloride, pH 8

Structure (SMILES): CC(C)C[C@H](NC(=O)[C@H](Cc1c[nH]cn1)NC(=O)CNC(=O)c1ccccc1)C(=O)O [HipHisLeu] (Bz-Gly-His-Leu-OH)
- Reaction Velocity - Percent of Substrate Hydrolyzed in 10 minutes (Guinea pig urinary ACE; 0.05M Hepes pH 8.0, 0.0M NaCl, Na2SO4 0): 0%
- Reaction Velocity - Percent of Substrate Hydrolyzed in 10 minutes (Guinea pig urinary ACE; 0.05M Hepes pH 8.0, 0.0M NaCl, Na2SO4 0.1): 0%
- Reaction Velocity - Percent of Substrate Hydrolyzed in 10 minutes (Guinea pig urinary ACE; 0.05M Hepes pH 8.0, 0.0M NaCl, Na2SO4 0.2): 0%
- Reaction Velocity - Percent of Substrate Hydrolyzed in 10 minutes (Guinea pig urinary ACE; 0.05M Hepes pH 8.0, 0.0M NaCl, Na2SO4 0.3): 0%
- Reaction Velocity - Percent of Substrate Hydrolyzed in 10 minutes (Guinea pig urinary ACE; 0.05M Hepes pH 8.0, 0.0M NaCl, Na2SO4 0.4): 0.1%
- Reaction Velocity - Percent of Substrate Hydrolyzed in 10 minutes (Guinea pig urinary ACE; 0.05M Hepes pH 8.0, 0.0M NaCl, Na2SO4 0.5): 0.1%
- Reaction Velocity - Percent of Substrate Hydrolyzed in 10 minutes (Guinea pig urinary ACE; 0.05M Hepes pH 8.0, 0.0M NaCl, Na2SO4 0.6): 0.25%
- Reaction Velocity - Percent of Substrate Hydrolyzed in 10 minutes (Guinea pig urinary ACE; 0.05M Hepes pH 8.0, 0.0M NaCl, Na2SO4 0.7): 0.25%
- Reaction Velocity - Percent of Substrate Hydrolyzed in 10 minutes (Guinea pig urinary ACE; 0.05M Hepes pH 8.0, 0.0M NaCl, Na2SO4 0.75): 0.25%
- Reaction Velocity - Percent of Substrate Hydrolyzed in 10 minutes (Guinea pig urinary ACE; 0.05M Hepes pH 8.0, 0.0M NaCl, Na2SO4 0.8): 0.25%
- Reaction Velocity - Percent of Substrate Hydrolyzed in 10 minutes (Guinea pig urinary ACE; 0.05M Hepes pH 8.0, 0.0M NaCl, Na2SO4 0.9): 0.7%
- Reaction Velocity - Percent of Substrate Hydrolyzed in 10 minutes (Guinea pig urinary ACE; 0.05M Hepes pH 8.0, 0.0M NaCl, Na2SO4 1.2): 3.9%
- Reaction Velocity - Percent of Substrate Hydrolyzed in 10 minutes (Guinea pig urinary ACE; 0.05M Hepes pH 8.0, 0.1M NaCl, Na2SO4 0): 0.3%
- Reaction Velocity - Percent of Substrate Hydrolyzed in 10 minutes (Guinea pig urinary ACE; 0.05M Hepes pH 8.0, 0.1M NaCl, Na2SO4 0.4): 4.1%
- Reaction Velocity - Percent of Substrate Hydrolyzed in 10 minutes (Guinea pig urinary ACE; 0.05M Hepes pH 8.0, 0.1M NaCl, Na2SO4 0.6): 8.3%
- reduction of Km by sulfate (Guinea pig serum ACE; 0.75 M Na2SO4 in reaction mixture containing 0.1 M NaCl): about 15 fold
- decrease in Km by sulfate (Guinea pig serum ACE; sulfate ion 0.75-1.1 M): 14 fold
- inhibition on removal of sodium chloride from the reaction medium (ACE from rabbit lung): 92%

Structure (SMILES): C[C@H](NC(=O)[C@H](Cc1ccccc1)NC(=O)c1ccccc1)C(=O)N1CCC[C@H]1C(=O)O [benzoylPheAlaPro, benzoyl-Phe-Ala-Pro] (Bz-Phe-Ala-Pro-OH)
- Reaction Velocity - Percent of Substrate Hydrolyzed in 10 minutes (Guinea pig urinary ACE; 0.05 Hepes pH 8.0, 0.1 M NaCl, Na2SO4 0): 4.4%
- Reaction Velocity - Percent of Substrate Hydrolyzed in 10 minutes (Guinea pig urinary ACE; 0.05 Hepes pH 8.0, 0.1 M NaCl, Na2SO4 0.1): 5.0%
- Reaction Velocity - Percent of Substrate Hydrolyzed in 10 minutes (Guinea pig urinary ACE; 0.05 Hepes pH 8.0, 0.1 M NaCl, Na2SO4 0.5): 5.6%
- extraction into ethyl acetate ([1]; reaction terminated with dilute hydrochloric acid): extracted almost quantitatively
- fraction entering the toluene phase ([1]; toluene and acidified reaction mixture in approximately equal volumes, room temperature): 6%
- increase of apparent reaction velocity by added NaCl (ACE): approximately 3 fold

Structure (SMILES): O=C(O)CNC(=O)CNC(=O)CNC(=O)c1ccccc1 [HipGlyGly] (Bz-Gly-Gly-Gly-OH)
- hydrolysis in the absence of NaCl ([2]; no NaCl, Na2SO4 0.001 M to 0.6 M): no hydrolysis
- decrease of Km by sulfate [2, 3]: about 15%
- increase of Vmax by sulfate [2, 3]: about 5 fold
